Experimental data taken from US5688787A, “Substituted β-lactam compounds useful as hypochlesterolemic agents and processes for the preparation thereof” (priority 1996, dated 1997).
Read-outs that look alike come from different tables or passages of the source.

How the values were obtained:
ACAT = molecular target: T1, ACAT (Rattus norvegicus, UniProt Q7TQM4); assay: ACAT Assay (in vitro); type: biochemical; details: for inhibition at 10 µM: Conc. 10 µM, negative = apparent stimulation, read-out: ACAT (in vitro) % Inhib.
T1 construct: Rat liver microsomes are used as the source of ACAT; from tissue; host or cells: rat liver microsomes
T1 sequence (Q7TQM4 1-524): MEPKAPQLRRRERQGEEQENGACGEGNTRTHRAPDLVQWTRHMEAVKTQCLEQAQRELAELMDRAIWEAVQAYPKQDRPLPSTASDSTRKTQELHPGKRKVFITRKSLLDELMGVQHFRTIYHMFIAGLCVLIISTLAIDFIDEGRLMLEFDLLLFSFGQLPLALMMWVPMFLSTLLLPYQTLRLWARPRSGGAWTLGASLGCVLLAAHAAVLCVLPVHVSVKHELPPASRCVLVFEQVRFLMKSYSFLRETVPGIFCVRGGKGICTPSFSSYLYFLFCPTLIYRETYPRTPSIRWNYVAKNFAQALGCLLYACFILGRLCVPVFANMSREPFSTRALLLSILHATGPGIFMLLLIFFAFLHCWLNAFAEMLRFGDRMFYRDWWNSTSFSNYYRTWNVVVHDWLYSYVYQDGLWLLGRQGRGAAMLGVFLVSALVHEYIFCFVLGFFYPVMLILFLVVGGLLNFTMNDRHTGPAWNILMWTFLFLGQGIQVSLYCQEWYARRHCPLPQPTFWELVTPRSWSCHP

Hyperlipidemic Hamster = assay: In Vivo Assay of Hypolipidemic Agents Using the Hyperlipidemic Hamster; details: Mesocricetus auratus, po, 168 h, 50 mg/kg once daily oral, 7 days, percent change versus control, negative = lowering
In short: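 Test compound in corn oil was given orally once daily for seven days, starting with a 0.5% cholesterol diet, to groups of six hamsters; corn oil alone served as control. Plasma and hepatic lipids were analysed after decapitation. Results are expressed as percent change relative to control.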

[1] = read-out: % Reduction (in vivo) Cholest. Esters
[2] = read-out: % Reduction (in vivo) Serum Cholest.

Row | SMILES | inhibition at 10 µM (ACAT) [%] | IC50 (ACAT; rat liver microsomes, read-out: ACAT (in vitro) IC50) [µM] | change in vivo at 50 mg/kg (Hyperlipidemic Hamster; [1]) [%] | change in vivo at 50 mg/kg (Hyperlipidemic Hamster; [2]) [%]
1 | CCCCCCCCCC[C@]1(CC)C(=O)N(c2ccc(OC)cc2)[C@H]1c1ccccc1 (stereo in doubt) [Example 3Q] | 3 |  | 0 | -6
2 | COc1ccc(N2C(=O)C(c3ccccc3)(C3CCCC3)C2c2ccccc2)cc1 (stereo not shown) [Example 1AC] | 40 |  | -33 | -16
3 | COc1cc(OC)c(N2C(=O)C(CCCc3ccccc3)C2c2ccccc2)c(OC)c1 (stereo not shown) [Example 1F] | 61 |  | 20 | 0
4 | CCCCCCCCCCC1C(=O)N(c2c(OC)cc(OC)cc2OC)C1c1ccccc1 (stereo not shown) [Example 1U] | 58 | 19 | 0 | 0
5 | COc1ccc(N2C(=O)C(CCCc3ccccc3)(CCCc3ccccc3)C2C=Cc2ccccc2)cc1 (stereo not shown) [Example 3N] | 62 |  | 0 | 0

Continued, in another order:

Row | inhibition at 10 µM (ACAT) [%] | IC50 (ACAT; rat liver microsomes, read-out: ACAT (in vitro) IC50) [µM] | SMILES | change in vivo at 50 mg/kg (Hyperlipidemic Hamster; [1]) [%] | change in vivo at 50 mg/kg (Hyperlipidemic Hamster; [2]) [%]
6 | 53 |  | COc1ccc(N2C(=O)[C@H](CCCc3ccccc3)[C@@H]2c2ccc(CN3CCN(C)CC3)cc2)cc1 (relative stereo) [Example 19B] | -31 | -26
7 | 24 |  | COc1ccc(N2C(=O)[C@H](CCCc3ccccc3)[C@H]2c2ccc(CN3CCOCC3)cc2)cc1 (relative stereo) [Example 19] | -51 | -20
8 | 65 |  | CCOc1ccc(N2C(=O)[C@H](CCCc3ccccc3)[C@@H]2c2ccc(OC)cc2)cc1 (relative stereo) [Example 35B] | -99 | -53
9 | 18 |  | COc1ccc([C@H]2[C@@H](CCCc3ccccc3)C(=O)N2c2ccc(OCc3ccccc3)cc2)cc1 (relative stereo) [Example 35] | -32 | -15
10 | 31 |  | COc1ccc(C2N(c3ccc(OC)cc3)C(=O)C2(c2ccccc2)c2ccccc2)cc1 (stereo not shown) [Example 7AC] | 0 | 0
